Measurements taken from publication PMC7665024, “Anti-apoptotic BCL-2 regulation by changes in dynamics of its long unstructured loop” (Communications Biology, 2020).

What was measured:
[1] = test system: BAX; assay: FRAP-GUV pore-forming activity of BAX, 70-kDa F-dextran;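 as to FRAP pore-forming activity, average: unitless ratio D/D0 relative to diffusion coefficient after Triton X-100 disruption of GUVs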;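 as to FRAP pore-forming activity: unitless ratio D/D0 relative to diffusion coefficient after Triton X-100 disruption of GUVs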; assay type: biochemical, mouse; design: FRAP pore-forming activity / FRAP pore-forming activity, average / p (FRAP-70k-p), Average: unit not given here; conditions: for pore-forming activity / effect on BAX-induced membrane pores on GUV (in words): 10- and 70-kDa F-dextran, BAX 1 µM, BimBH3 2 µM, BCL-2 1 µM, ABT-199 30 µM, room temperature, Fig. 2c; for FRAP pore-forming activity, average / FRAP pore-forming activity: 70 kDa F-dextran; for FRAP pore-forming activity, average: mean of trials
Method: (§1) Briefly, GUVs were incubated with the proteins of interest over a period of time (Fig. 2c), followed by photobleaching within individual GUVs. A series of fluorescent images were collected over time after the photobleaching and then analyzed to yield the diffusion coefficients of Fluor molecules (including FITC-labeled 70-kDa, and Alexa-647-labeled 10-kDa probes) using the theoretical approach detailed in the “Methods” section. As Fluor molecules are homogeneously dispersed in the solution (outside and inside of GUVs) before the incubation with BAX and activators, it is reasonable to expect that the larger the induced pore area on the surface of a GUV, the greater the diffusion coefficient. Thus, the diffusion coefficient is directly related to the pore-forming activity of activated BAX. As the pore-forming activity is proportional to the concentration of BAX[18], we fixed the total amount of added BAX in all of the measurements below (see the “Methods” section).
(§2) Full-length BAX and variants were prepared as previously described[18],[22],[35]. Mouse BAX was cloned into pTYB1 vector (New England Biolabs, Inc.), resulting pTYB1-BAX construct. The pTYB1-BAX construct encoding a fusion protein of BAX with chitin-binding peptide was separated by a self-cleavable intein tag to obtain a full-length BAX. Wild-type BAX has two native cysteine residues at 62 and 126. Cysteine-free construct (C62S/C126S) was used to prepare single-cysteine BAX variants for conjugating fluorescence probes (e.g., BAX136C in Fig. 1d). Point mutations of recombinant BAX were generated using a QuikChange mutagenesis kit. Proteins were expressed in E. coli (ER2566) strain (New England Biolabs, Inc.) and purified without detergent. Bacterial cultures were grown at 37 °C in LB medium containing 0.1 g/L ampicillin to reach an OD600 of 1.0. BAX expression was induced by addition of 0.3 mM IPTG at 30 °C for 6−8 h. The cells were harvested by centrifugation and resuspended in ice-cold lysis buffer (20 mM Tris–HCl, pH 7.0, 500 mM NaCl and 1 mM PMSF). The resuspended pellet was sonicated on ice for 30 min, followed by centrifugation at 12,800 × g for 50 min. […] The resins were incubated in a pre-equilibrated buffer (20 mM sodium phosphate, pH 8.0, 100 mM NaCl, 60 mM dithiothreitol (DTT)) for 48 h. Proteins were eluted from column and further purified by a SEC using a HiLoad 16/60 Superdex 75 column (GE Healthcare) pre-equilibrated in PB buffer (20 mM sodium phosphate, pH 7.4, 100 mM NaCl). Purified proteins were confirmed by SDS–PAGE with Coomassie blue staining. Protein concentration was determined using absorption spectroscopy at 280 nm.
(§3) All lipids used were purchased from Avanti Polar Lipids. […] Texas Red 1,2-dihexadecanoyl-sn-glycero-3-phosphoethanolamine (TR-DPPE) (Invitrogen) of 0.05% was added to the lipid mixture for virtualization of GUV[18],[26],[27]. GUVs were prepared with the gel-assisted swelling on a polyvinyl alcohol (PVA) gel[39]. A 5% (w/w) solution of PVA (MW 145,000) was prepared by stirring PVA in ddH2O while heating at 90 °C. PVA solution was spread on a microscope coverslip (18 × 18 mm, Matsunami, Japan) and then dried at 50 °C. Lipid mixture (1 mg/mL) dissolved in chloroform were spread on the dry PVA film and placed under vacuum for 30 min to evaporate the solvent. Lipids were rehydrated for 1 h in PB buffer. The resulting GUVs were transferred to an Eppendorf tube using blunt tips.
(§4) FRAP measurements were performed as described previously. […] All reactions were at room temperature and the final volume was 200 μL.

[2] = test system: BAX; assay: FRAP-GUV pore-forming activity of BAX, 10-kDa F-dextran; assay type: biochemical, mouse; design: unit not given here
Method: as §1, §2, §3, §4

[3] = 10 kDa F-dextran, mean of trials

Compound: CC1(C)CCC(CN2CCN(c3ccc(C(=O)NS(=O)(=O)c4ccc(NCC5CCOCC5)c([N+](=O)[O-])c4)c(Oc4cnc5[nH]ccc5c4)c3)CC2)=C(c2ccc(Cl)cc2)C1 [ABT-199, Venetoclax, reference compound]
- pore-forming activity / effect on BAX-induced membrane pores on GUV (in words) [1]: BimBH3 is released from EEE to induce BAX activation and membrane pores
- FRAP pore-forming activity, average [1]: 0.0000762
- FRAP pore-forming activity ([1]; trial1): 0.0000000
- FRAP pore-forming activity ([1]; trial2): 0.000165
- FRAP pore-forming activity ([1]; trial3): 0.0000000
- FRAP pore-forming activity ([1]; trial4): 0.000165
- FRAP pore-forming activity ([1]; trial5): 0.0000000
- FRAP pore-forming activity ([1]; trial6): 0.0000000
- FRAP pore-forming activity ([1]; trial7): 0.000165
- FRAP pore-forming activity ([1]; trial8): 0.0000000
- FRAP pore-forming activity ([1]; trial9): 0.0000000
- FRAP pore-forming activity ([1]; trial10): 0.0000000
- FRAP pore-forming activity ([1]; trial11): 0.000165
- FRAP pore-forming activity ([1]; trial12): 0.000165
- FRAP pore-forming activity ([1]; trial13): 0.000165
- FRAP pore-forming activity, average [2, 3]: 0.0002024
- FRAP pore-forming activity ([2]; 10 kDa F-dextran, trial1): 0.0000000
- FRAP pore-forming activity ([2]; 10 kDa F-dextran, trial2): 0.0001754
- FRAP pore-forming activity ([2]; 10 kDa F-dextran, trial3): 0.0000000
- FRAP pore-forming activity ([2]; 10 kDa F-dextran, trial4): 0.0001754
- FRAP pore-forming activity ([2]; 10 kDa F-dextran, trial5): 0.0000000
- FRAP pore-forming activity ([2]; 10 kDa F-dextran, trial6): 0.0000000
- FRAP pore-forming activity ([2]; 10 kDa F-dextran, trial7): 0.0001754
- FRAP pore-forming activity ([2]; 10 kDa F-dextran, trial8): 0.0008772
- FRAP pore-forming activity ([2]; 10 kDa F-dextran, trial9): 0.0007018
- FRAP pore-forming activity ([2]; 10 kDa F-dextran, trial10): 0.0000000
- FRAP pore-forming activity ([2]; 10 kDa F-dextran, trial11): 0.0001754
- FRAP pore-forming activity ([2]; 10 kDa F-dextran, trial12): 0.0001754
- FRAP pore-forming activity ([2]; 10 kDa F-dextran, trial13): 0.0001754

Compound: BAX: full-length mouse BAX; in FRET the single-cysteine variant BAX136C labeled with AL488 [reference compound]
- pore-forming activity / effect on BAX-induced membrane pores on GUV (in words) [1]: neither BAX nor EEE, in the absence of pro-apoptotic BimBH3, is able to induce large membrane pores on GUV
- FRAP pore-forming activity, average [1]: 0.004165
- FRAP pore-forming activity ([1]; trial1): 0.0008251
- FRAP pore-forming activity ([1]; trial2): 0.006931
- FRAP pore-forming activity ([1]; trial3): 0.002475
- FRAP pore-forming activity ([1]; trial4): 0.000495
- FRAP pore-forming activity ([1]; trial5): 0.00132
- FRAP pore-forming activity ([1]; trial6): 0.001155
- FRAP pore-forming activity ([1]; trial7): 0.003135
- FRAP pore-forming activity ([1]; trial8): 0.001155
- FRAP pore-forming activity ([1]; trial9): 0.000495
- FRAP pore-forming activity ([1]; trial10): 0.0008251
- FRAP pore-forming activity ([1]; trial11): 0.00264
- FRAP pore-forming activity ([1]; trial12): 0.00231
- FRAP pore-forming activity ([1]; trial13): 0.002145
- FRAP pore-forming activity ([1]; trial14): 0.005776
- FRAP pore-forming activity ([1]; trial15): 0.000165
- FRAP pore-forming activity ([1]; trial16): 0.000495
- FRAP pore-forming activity ([1]; trial17): 0.01485
- FRAP pore-forming activity ([1]; trial18): 0.0132
- FRAP pore-forming activity ([1]; trial19): 0.01155
- FRAP pore-forming activity ([1]; trial20): 0.002805
- FRAP pore-forming activity ([1]; trial21): 0.01271
- p (FRAP-70k-p), Average ([1]; 70 kDa, Average of replicates (Count: BAX 21; BAX + BimBH3 16; BAX + BimBH3 + EEE 19; + EEE-PB 8; + EEE+ABT-199 5)): 0.004165
- FRAP pore-forming activity, average [2, 3]: 0.009408
- FRAP pore-forming activity ([2]; 10 kDa F-dextran, trial1): 0.008947
- FRAP pore-forming activity ([2]; 10 kDa F-dextran, trial2): 0.02404
- FRAP pore-forming activity ([2]; 10 kDa F-dextran, trial3): 0.006842
- FRAP pore-forming activity ([2]; 10 kDa F-dextran, trial4): 0.00807
- FRAP pore-forming activity ([2]; 10 kDa F-dextran, trial5): 0.01263
- FRAP pore-forming activity ([2]; 10 kDa F-dextran, trial6): 0.01719
- FRAP pore-forming activity ([2]; 10 kDa F-dextran, trial7): 0.004737
- FRAP pore-forming activity ([2]; 10 kDa F-dextran, trial8): 0.002982
- FRAP pore-forming activity ([2]; 10 kDa F-dextran, trial9): 0.002807
- FRAP pore-forming activity ([2]; 10 kDa F-dextran, trial10): 0.02035
- FRAP pore-forming activity ([2]; 10 kDa F-dextran, trial11): 0.007719
- FRAP pore-forming activity ([2]; 10 kDa F-dextran, trial12): 0.003684
- FRAP pore-forming activity ([2]; 10 kDa F-dextran, trial13): 0.01684
- FRAP pore-forming activity ([2]; 10 kDa F-dextran, trial14): 0.0007018
- FRAP pore-forming activity ([2]; 10 kDa F-dextran, trial15): 0.003509
- FRAP pore-forming activity ([2]; 10 kDa F-dextran, trial16): 0.009474
- FRAP pore-forming activity, average ([2]; 10 kDa, Average of replicates (Count: BAX 16; BAX + BimBH3 19; BAX + BimBH3 + EEE 22; + EEE-PB 4; + EEE+ABT-199 5)): 0.009408
